Entries after “also recorded” stand apart in the source; their conditions may differ.
Tests used:
[1] = test system: CD4+CD25+CD127− Treg cells; test: ELISA of secreted cytokines (TNFα, IL-10, IFNγ) in conditioned media of Treg cultures; format: cell-based, human; conditions: PMA relative to controls
From the text: (§1) CD4^+CD25^+CD127^− Treg cells were sorted by FACS into phosphate buffered saline (PBS) containing 20% AB serum (Sigma-Aldrich®, UK), then washed and resuspended in serum-free cell culture medium (TexsMACS™ medium; Miltenyi Biotec®, UK), supplemented with 5% AB serum (Sigma-Aldrich®, UK), 1% Penicillin-Streptomycin (Gibco®, Ireland) and human IL-2 (Miltenyi Biotec®, UK). Trypan blue (Sigma-Aldrich®, UK) was used to ensure cell viability after sorting was >90-95%. A human Treg expansion kit (Miltenyi Biotec, UK) was used to induce Treg proliferation in order to expand the population to sufficient cell numbers for experiments. Following 14 days of expansion, Tregs were stimulated with 10 ng/ml phorbol 12-myristate 13-acetate (PMA) (Sigma-Aldrich®, UK) and 500 ng/ml ionomycin (10) (Invitrogen®) for 24 hours. During the same 24-hour stimulation, Tregs were incubated with or without 10 mM sialic acid (Sia) (Sigma-Aldrich®, UK). At baseline, 24 hr and 48 hr time points (Day 0, Day 1 and Day 2), cells were removed from culture and labelled prior to FACS analysis of extracellular markers CD4, CD25, CD127 and CD43, and intracellular markers NFκB and FoxP3. Cell culture conditioned media was retained and analysed for secreted cytokine levels by enzyme-linked immunosorbent assay (ELISA), described below. A preliminary experiment included a Day 2 time-point, however latter experiments were concluded at the Day 1 time-point as this was sufficient to observe Sia treatment effects. […]
Following cell culture experiments, conditioned media were analysed to quantify TNFα, IL-10 and IFN-γ by ELISA using appropriate ELISA reagent kits (DuoSet® ELISA development kits; R&D Systems®, UK) according to the manufacturer's instructions. The optical density (OD) was determined using a spectrophotometer (Epoch™ microplate spectrophotometer; BioTek® Ltd, UK) with appropriate software (Gen5™; BioTek® Ltd, UK). The plate was read at a wavelength of 450 nm and wavelength correction of OD at 540 nm used. […]

[2] = test system: CD4+CD25+CD127− Treg cells; test: FACS analysis of CD4, NFκB and FoxP3 in expanded Tregs stimulated with PMA with or without Sia; format: cell-based, human
From the text: PBMCs were labelled with antibodies (Becton Dickinson®, UK) against CD3, CD4, CD25, CD45, CD45RA, CD127 and CD43 antigens according to the manufacturer's instructions to assess relative Treg numbers. When FoxP3 and nuclear factor kappa-light-chain-enhancer of activated B cells (NFκB) antibody labelling was required, cells were pretreated with a lymphocyte membrane permeabilising solution (BD FACS™ Permeabilizing solution 2; Becton Dickinson®, UK). For monocyte analysis, cells were firstly enriched using a pan monocyte isolation kit and benchtop magnetic cell sorting device (autoMACS Pro separator; Miltenyi Biotec®). Enriched monocytes were labelled with antibodies (Becton Dickinson®, UK) against CD14, CD16 and CD169 antigens. Cell populations were analysed using fluorescence-activated cell sorting (FACS) in a flow cytometer with sorting capability (FACSAria™ III; Becton Dickinson, UK) with appropriate flow cytometer software (BD FACSDiva™ software version 8.0.1; Becton Dickinson, UK). Negative controls including unlabelled cells and isotype matched control antibodies were used to determine gating strategies. The positivity of a specific cell surface marker in labelled samples compared to the negative control was analysed as a percentage of the parent population. The median fluorescence intensity (MFI), indicating cell surface density of a specific marker, was also noted for cell populations. Mann Whitney tests were used to assess the statistical significance of differences between sample groups and graphs depict median values with error bars representing the interquartile range.
as §1, with “At baseline, 24 hr and 48 hr time points (Day 0, Day 1 and Day 2), cells were removed from culture and labelled prior to FACS analysis of extracellular markers CD4, CD25, CD127 and CD43, and intracellular markers NFκB and FoxP3.” left out, “below.” for “below. A preliminary experiment included a Day 2 time-point, however latter experiments were concluded at the Day 1 time-point as this was sufficient to observe Sia treatment effects.”

Structure (SMILES) | IFNγ levels secreted into media ([1]; Day 1, p<0.01) | levels of IL-10 secreted into media ([1]; Day 1 and Day 2, p<0.05) | levels of TNFα secreted into media ([1]; Day 1 and Day 2, p<0.05) | CD4 cell-surface expression (percentage of CD4 positivity) ([2]; 10 ng/ml PMA + 500 ng/ml ionomycin, compared to CTL cells without stimulation) | percentage of cells with intracellular expression of FoxP3 ([2]; PMA stimulation, both CD43+ and CD43− Tregs, each time point, p<0.01) | percentage of cells with intracellular expression of NFκB ([2]; PMA stimulation, both CD43+ and CD43− Tregs, each time point, p<0.05) | effect on NFκB Tregs ([2]; 10 mM Sia added to PMA-stimulated Tregs, after 2 days)
CCCCCCCCCCCCCC(=O)O[C@@H]1[C@@H](C)[C@@]2(O)[C@@H](C=C(CO)C[C@]3(O)C(=O)C(C)=C[C@@H]23)[C@@H]2C(C)(C)[C@]12OC(C)=O [PMA, phorbol 12-myristate 13-acetate] | significantly higher | significantly increased | significantly increased | reduced; also recorded: reduction | increased | increased | –
CC(=O)N[C@H]1[C@H]([C@H](O)[C@H](O)CO)OC(O)(C(=O)O)C[C@@H]1O (stereo partly shown) [Sia, sialic acid] | – | – | – | – | – | – | no significant effect
